From patent publication US6800481B1, “Stable macroscopic membranes formed by self-assembly of amphiphilic peptides and uses therefor” (priority 1992, dated 2004) come the findings set out here.

“Also recorded” adds a separate entry of the source.

Series [1] has as its system striatum (a brain structure). The series can be described thus: In vivo injection into the striatum, gliosis (nissl stain). To be noted: rats, 1 μl into the striatum. As for the experimental part:
Three hundred g rats were anesthesized with equithesin (0.3 ml/100 g body weight). The skull was surgically exposed and small burr holes were stereotaxically drilled at AP=+1.5, ML=+/−3.0 relative to bregma. An injection cannula was placed at a depth of −4.5 in the striatum (a brain structure). Experimental rats received 1 μl of EAK16 or RAD16 injected into the striatum. Control rats received similar injections of ibotenic acid, a well characterized toxin, as a positive contorl for gliosis, the experimental rats also received 35 μl injection of EAK16 or RAD16 into the thigh muscle (n=2 for each group). The rate were allowed to recover, then sacrificed for tissue harvest.

Series [2] in a line: Testing of peptides for macroscopic membrane formation (phase-contrast microscope, Congo Red staining). Format: physicochemical. From the text:
The effect of length and sequence on membrane formation was examined using several peptides (Table 1 and Example 3). […] Very long peptides, e.g., of about 200 amino acids, may encounter problems due to insolubility and intramolecular interactions which destabilize membrane formation. […] The optimal lengths for membrane formation will probably vary with the amino acid composition.
The EAK12 and EAK16 tested for membrane formation were acetylated and aminylated at both N- and C-terminal ends. […] The peptides were initially dissolved in water (5 mg/ml) or in 23% acetonitrile (10 mg/ml). A volume of 5-10 microliters of the dissolved peptides were applied to the DMEM medium, PBS or water. The formation of the membrane was first observed under a phase-contrast microscope and then, by the naked eye after staining with Congo Red.

Series [3] is classed as physicochemical. The protocol: Once formed, the macroscopic membranes are stable in a variety of aqueous solutions, including water, phosphate-buffered saline (PBS), tissue culture medium, serum, and also in ethanol, and can be transferred to and stored in any of these liquids. […] The membranes can be transferred from one solution to another using a solid support such as a spatula. They can be broken by cutting, tearing or shearing.
The stability of the membranes was also tested under a range of temperature, pH and chemical conditions. For these experiments, membranes were formed by adding 20 μl of a 0.5 mM stock solution of EAK16 to 0.5 ml of PBS, and transferred into water or other solutions at test conditions.
The membranes could be frozen and thawed, although care was required in handling the frozen membranes which were brittle. In boiling water, the membranes tended to be sheared by the mechanical agitation. […] (FIGS. 9A and 9B). […] Such strong thermal stability of the defined β-sheet structure of EAK16 is unusual for a small peptide. For example, these findings contrast with the α-helix-forming sixteen residue (Ala, Glu, Lys)-containing peptides studied previously (Marqusee and Baldwin, 1987).
The EAK16 membranes were also tested in water at pH 1.5, 3, 7 and 11 at room temperature for at least a week and at 95° C. for about 4 hours. The membranes were unaffected at these pH. […] It is possible that the complementary interactions between the Glu and Lys side-chains are strong even when the carboxyl groups of the Glu residues have been protonated at pH 1.5 and 3, due to their ability to form hydrogen bonds even when protonated.
The EAK16 membranes were further tested for resistance to chemical denaturation under the following conditions: 1% and 10% sodium dodecyl sulfate (SDS); 1, 2, 3, 4, 5, 6 and 7 M guanidine-HCl; and 1, 2, 3, 4, 5, 6, 7 and 8 M urea. […] The membranes were also tested at 95° C. for 4 hours in 10% SDS; 7 M guanidine-HCl; and at 8 M urea.

For a further series, the system named is 3T3 fibroblast cells. Nature of the series: Cell attachment to biopolymer sheets, with serum or serum-free + cyclohexamide (Table 5). Format: cell-based, mouse. On the set-up: key: ++++: strong attachment; +++: moderate attachment; ++: weak attachment; +/−: little or no attachment. The protocol: 3T3 fibroblast cells were introduced to membranes of RAD16 and EAK16 in normal serum-containing medium or in serum-free medium containing 30 μg/ml cyclohexamide (cells used for this condition were pretreated in this medium for 2 hours before plating). Cells were allowed to attach to the membranes for 30 minutes, 1 and 8 hours at 37° C. The attached cells were shaken for 10 minutes on a rotary rocker at 60 r.p.m., then scored under phase contrast microscopy. The decrease in cells attached to the membrane in the serum-free condition reflects cell loss due to serum deprivation.

A further series has as its system 3T3. The series can be described thus: Cell attachment to biopolymer sheets, normal or Ca++ and Mg++ free medium (Table 6). Format: cell-based, mouse. On the set-up: key: ++++: strong attachment; +++: moderate attachment; ++: weak attachment; +/−: little or no attachment. To be noted: 3T3, 30 min, Normal Ca^++ & Mg^++ serum-free + Cyclohex. As for the experimental part:
(§1) Cells were pretreated in serum-free medium containing 30 μg/ml cyclohexamide for 2 hours before introduction to the peptide membranes. The cells used for the calcium and magnesium-free condition were pre-equilibrated in Ca^++ and Mg^++ free medium containing 5 mM EDTA for 15 minutes before introduction to the peptide membranes. Cells were allowed to attach to the peptide membranes for 30 minutes, 1 and 8 hours at 37° C. The attached cells were shaken for […] on a rotary rocker at 60 r.p.m., then scored under phase contrast microscopy.

A further series concerns PC12NGF. The description is as above. Format: cell-based, rat. Details: key: ++++: strong attachment; +++: moderate attachment; ++: weak attachment; +/−: little or no attachment. The protocol:
as §1

The test system of a further series is PC12. The series is described as above. Format: cell-based, rat. On the set-up: key: ++++: strong attachment; +++: moderate attachment; ++: weak attachment; +/−: little or no attachment. The protocol: as §1
Another series concerns PC12 cells. The series can be described thus: In vitro neurite outgrowth on peptide membranes. Type of series: cell-based, rat. On the set-up: Neurite outgrowth, NGF treated, 14 days: key to the marks not given beside the values. As for the experimental part: The suitability of these materials for supporting in vitro neurite outgrowth was tested by treating biomaterial-attached PC12 cells with nerve growth factor (NGF). This treatment induces PC12 cells to differentiate into sympathetic neurons which can send out long processes called neurites. There was a marked difference in the neurite promoting properties of the two materials tested (EAK16 and RAD16).
Nerve growth factor differentiated PC12 cells have been used extensively in studies of neurite outgrowth. PC12 cells upregulate the number of calcium-dependent and -independent cell adhesion receptors in response to nerve growth factor. Cell attachment and neurite outgrowth from nerve growth factor differentiated PC12 cells was examined on membranes of RAD16 and EAK16 in order to determine whether membranes containing RGD-like sequences would preferentially support these cell activities. Neurite outgrowth on peptide membranes is of interest for potential applications of nerve repair.
Untreated PC12 cells were introduced to peptide membranes of EAK16 and RAD16 suspended in 85% RMMP1, 10% heat inactivated horse serum, 5 fetal bovine serum. Half of the cells were treated with nerve growth factor (50 ng/ml, NGF) and were supplemented with NGF every 3-4 days for 14 days. […] The neurite outgrowth reached greater than 400 μm in length, approximately 15-20 times the cell body, following the contour of the matrices in a three dimensional network.

The subject of series [4] is NGF differentiated PC12 cells, retonic acid-differentiated human neuroblastoma and mouse cerebellum granule cells. Nature of the series: Neurite outgrowth on biopolymers, several neuronal cell types. Format: cell-based. From the text:
The invention further relates to the regeneration of nerves with filaments of the membranes of the present invention. Nerve regeneration can be promoted and directed by transplanting filaments of RAD16 along the correct path to their targets. This would be extremely useful for patients with severed peripheral nerves. Such a technology could be refined to help people with spinal cord injuries.

The mark [5] stands for this setting: NGF-treated PC12 cells, 14 days.

Turning to `N[C@H](C(=O)O)c1cc(=O)[nH]o1` [ibotenic acid, reference compound], the “gliosis / gliotic scarring after brain injection” value in series [1] is “robust gliotic scarring around the injection site”.
Consider H-AAAADADARARADAD-OH [RAD16], for which the “formation of macroscopic membranes” value in series [2] (identical conditions, in words) is “found to form macroscopic membranes”. Also, in [2] (water), the “membranous structure in Water” value was “−”. For the same compound, the “stability of membranes in water or PBS” value in series [3] was “stable in water or PBS for at least a week”. Also, the cell attachment entry is “++++” in the series with 3T3 fibroblast cells (3T3, 30 min, medium with serum, no cyclohexamide); “++++” in the series on 3T3 fibroblast cells (3T3, 30 min, serum-free medium, + cyclohexamide); “++++” in the series on 3T3 fibroblast cells (3T3, 60 min, medium with serum, no cyclohexamide); “++++” with 3T3 fibroblast cells (3T3, 60 min, serum-free medium, + cyclohexamide); “++++” in the series on 3T3 fibroblast cells (3T3, 8 hrs, medium with serum, no cyclohexamide); “++” with 3T3 fibroblast cells (3T3, 8 hrs, serum-free medium, + cyclohexamide). The cell attachment result with 3T3 is on record as “++++”; in the series with PC12NGF (30 min, Ca^++ & Mg^++ free, EDTA serum-free + Cyclohex) it was “++++”; in the series on PC12NGF (30 min, Normal Ca^++ & Mg^++ serum-free + Cyclohex) it was “++++”; in the series with PC12NGF (60 min, Ca^++ & Mg^++ free, EDTA serum-free + Cyclohex), “++++”; with PC12NGF (60 min, Normal Ca^++ & Mg^++ serum-free + Cyclohex), “++++”; in the series with PC12 (PC12, 30 min, Ca^++ & Mg^++ free, EDTA serum-free + Cyclohex) it was “++++”. In addition, the cell attachment result with PC12 (PC12, 30 min, Normal Ca^++ & Mg^++ serum-free + Cyclohex) is “++++”; in the series on PC12 (PC12, 60 min, Ca^++ & Mg^++ free, EDTA serum-free + Cyclohex), “++++”; in the series with PC12 (PC12, 60 min, Normal Ca^++ & Mg^++ serum-free + Cyclohex) it was “++++”. Also, in the series on PC12 cells (NGF-treated PC12 cells on membranes), the “neurite outgrowth of NGF-treated PC12 cells, in words” value is “robust neurite processes; also recorded: Robust neurite outgrowth”. The neurite outgrowth length result with PC12 cells (setting [5]) is reported as “greater than 400 μm”. In the series with PC12 cells (setting [5]), the “neurite outgrowth length relative to the cell body” value was 15-20 times the cell body. The “Neurite outgrowth, untreated, 14 days” value with PC12 cells (PC12 cells without NGF, 14 days) is “− (no neurite outgrowth)”. Moreover, in the series on PC12 cells (PC12 cells, NGF 50 ng/ml, 14 days), the “Neurite outgrowth, NGF treated, 14 days” value was “++++”. Further, in series [4], the “neurite outgrowth on biopolymers” value was “occurs on RAD16-based biopolymers”.
